Numbers after ± are expanded uncertainties.
Settings: Crystal 2; DSC

COC(=O)[C@H](c1ccccc1Cl)N1CCc2sccc2C1.O=S(=O)(O)O [(S)-(+)-Clopidogrel hydrogen sulfate]
Triple point temperature: 449.15 ± 1 K

— the NIST ThermoML archive (doi:10.1021/je100022w)
